pIC50: −log10 of the molar value.
System: bromodomain
Assay: at least one of the bromodomain cell assays of Example 57
Assay type: cell-based
Settings: at least one of the bromodomain cell assays described in Example 57; read-out: IC50 in at least one of the bromodomain cell assays

SMILES | pIC50
Cc1noc(C)c1-c1cnc2c(-c3ccc(CO)cc3)cn([C@H](c3ccccc3)c3ccccn3)c2c1 [P-0724, [4-[6-(3,5-dimethylisoxazol-4-yl)-1-[(R)-phenyl(2-pyridyl)methyl]pyrrolo[3,2-b]pyridin-3-yl]phenyl]methanol] | > 5.00
C[C@@H](c1ccccn1)n1cc(-c2ccc(C(=O)O)cc2)c2ncc(-c3cc(Cl)c(=O)n(C)c3)cc21 [P-0766, 4-[6-(5-chloro-1-methyl-6-oxo-3-pyridyl)-1-[(1S)-1-(2-pyridyl)ethyl]pyrrolo[3,2-b]pyridin-3-yl]benzoic acid] | > 5.00
Cc1noc(C)c1-c1cnc2c(-c3ccc(C(=O)OC(C)C)cc3)cn([C@@H](c3ccccc3)c3ccccn3)c2c1 [P-0717, isopropyl 4-[6-(3,5-dimethylisoxazol-4-yl)-1-[(S)-phenyl(2-pyridyl)methyl]pyrrolo[3,2-b]pyridin-3-yl]benzoate] | > 5.00
Cc1noc(C)c1-c1cnc2c(-c3ccc(CC(=O)O)cc3)cn(CC3(C)CCCCC3)c2c1 [P-0781, 2-[4-[6-(3,5-dimethylisoxazol-4-yl)-1-[(1-methylcyclohexyl)methyl]pyrrolo[3,2-b]pyridin-3-yl]phenyl]acetic acid] | > 5.00
Cc1noc(C)c1-c1cnc2c(-c3ccc(C#N)nc3)cn([C@H](c3ccccc3)c3ccccn3)c2c1 [P-0731, 5-[6-(3,5-dimethylisoxazol-4-yl)-1-[(R)-phenyl(2-pyridyl)methyl]pyrrolo[3,2-b]pyridin-3-yl]pyridine-2-carbonitrile] | > 5.00
Cc1noc(C)c1-c1cnc2c(-c3ccc(C4(C(=O)O)CC4)cc3)cn(CC3CCOCC3)c2c1 [P-0772, 1-[4-[6-(3,5-dimethylisoxazol-4-yl)-1-(tetrahydropyran-4-ylmethyl)pyrrolo[3,2-b]pyridin-3-yl]phenyl]cyclopropanecarboxylic acid] | > 5.00
Cc1noc(C)c1-c1cnc2c(-c3ncc(C(=O)O)cn3)cn(CC3CCC(F)(F)CC3)c2c1 [P-0614, 2-[1-[(4,4-difluorocyclohexyl)methyl]-6-(3,5-dimethylisoxazol-4-yl)pyrrolo[3,2-b]pyridin-3-yl]pyrimidine-5-carboxylic acid] | > 5.00

The remaining lines, values ahead:

pIC50 | SMILES
> 5.00 | Cc1ccc(-c2cn(CC3(F)CCC(F)(F)CC3)c3cc(-c4c(C)nnn4C)cnc23)cc1 [P-0808, 6-(3,5-dimethyltriazol-4-yl)-3-(p-tolyl)-1-[(1,4,4-trifluorocyclohexyl)methyl]pyrrolo[3,2-b]pyridine]
> 5.00 | Cc1noc(C)c1-c1cnc2c(-c3ccc(C(C)(C)C)cc3)cn([C@@H](c3ccccc3)c3ccccn3)c2c1 [P-0813, 4-[3-(4-tert-butylphenyl)-1-[(S)-phenyl(2-pyridyl)methyl]pyrrolo[3,2-b]pyridin-6-yl]-3,5-dimethyl-isoxazole]
> 5.00 | Cn1cc(-c2cnc3c(-c4ccc(C(=O)O)cc4)cn(CC4CCCCC4)c3c2)cc(Cl)c1=O [P-0764, 4-[6-(5-chloro-1-methyl-6-oxo-3-pyridyl)-1-(cyclohexylmethyl)pyrrolo[3,2-b]pyridin-3-yl]benzoic acid]
> 5.00 | Cc1noc(C)c1-c1cnc2c(-c3ccc(C(C)(C)C(=O)O)cc3)cn(CC3(C)CCCCC3)c2c1 [P-0783, 2-[4-[6-(3,5-dimethylisoxazol-4-yl)-1-[(1-methylcyclohexyl)methyl]pyrrolo[3,2-b]pyridin-3-yl]phenyl]-2-methyl propanoic acid]
> 5.00 | Cc1noc(C)c1-c1cnc2c(-c3ccc(C#N)nc3)cn([C@@H](c3ccccc3)c3ccccn3)c2c1 [P-0720, 5-[6-(3,5-dimethylisoxazol-4-yl)-1-[(S)-phenyl(2-pyridyl)methyl]pyrrolo[3,2-b]pyridin-3-yl]pyridine-2-carbonitrile]
> 5.00 | Cc1noc(C)c1-c1cnc2c(-c3ccc(C(C)(C)C)cc3)cn([C@H](c3ccccc3)c3ccccn3)c2c1 [P-0814, 4-[3-(4-tert-butylphenyl)-1-[(R)-phenyl(2-pyridyl)methyl]pyrrolo[3,2-b]pyridin-6-yl]-3,5-dimethyl-isoxazole]

From patent US10519177B2, “Heterocyclic compounds and uses thereof” (Plexxikon Inc., priority 2013, dated 2019)
